Laboratory results as given in patent US20230067277A1, “ANALOGUES OF MYCOSPORINE-LIKE AMINO ACID AND USE THEREOF AS SUNSCREENS” (BASF SE, priority 2020, published 2023).

Columns and labels:
Assay type in all cases: physicochemical
[1] = Incorporation of UV filter into water phase of cosmetic formulation; conditions: 2.00 in Formulations 1, 2 and 4; pH 7-8
Description: Formulations 1 to 4 and a Placebo formulation were manufactured as follows. Part A and part B (see Table 3) were prepared separately and heated to 75-80° C. Under increasing stirring, part B was incorporated to part A and homogenized with Ultra Turrax for 20 sec. at 11000 rpm. The mixture was let cooled down to rt under stirring and part C was added. At rt pH 7-8 was adjusted with NaOH.

[2] = Specific extinction coefficient (UV/VIS spectrophotometer); conditions: for E (1%, 1 cm), maximum absorbance: d=1 cm, 250 nm to 500 nm
Description: The specific extinction coefficient of Compounds A to D was measured using a Perkin Elmer Lambda 650 UV/VIS Spectrophotometer. A stock solution of concentration c=1 mM of the UV-absorber was prepared in a 100 ml volumetric flask using either buffer or ethanol. Dilution steps followed in order to adjust the concentration, such that the extinction E at optical pathlength d=1 cm will be 1.0±0.5. UV spectrum was determined in a cuvette of an optical pathlength of d=1 cm at 250 nm to 500 nm. With the Beer-Lambert law one obtains the molar decadic extinction coefficient at any wavelength with: The respective specific extinction E %1.1 cm can be obtained via the following equation: […] where M=molecular weight of the UV-absorber. A di-sodium hydrogen phosphate/potassium dihydrogen phosphate buffer (ordering number 1.09439.1000) or ethanol (ordering number 1.00983.2511), each purchased from Merck was used.

[3] = Solubility test in cosmetic solvents and water; conditions: for solubility: % m/V; for precipitation visible after: addition to the respective solvent
Description: The solubility of Compounds A to D was tested, wherein the addition of Compound A and B to the respective solvent had been stopped after 50% m/V. In case of Compound C and D, a precipitation after about 1% m/V had been visible. The respective pH-values (see Table 1) had been measured of the final solution or suspension, respectively.

[4] = Water, addition of Compound A and B stopped after 50% m/V
[5] = cosmetic solvent Cetiol Ultimate

Row | E (1%, 1 cm), maximum absorbance ([2]; in EtOH) | pH-value of the final solution or suspension ([3]; Water) | solubility [3, 4] [%] | precipitation visible after [3] | solubility ([3]; cosmetic solvent Cetiol AB) | solubility [3, 5] | solubility ([3]; cosmetic solvent Myritol 318) | E (1%, 1 cm), maximum absorbance ([2]; buffer pH7 (phosphate buffer)) | specific extinction coefficient / absorbance, comparison among Compounds A to D (FIG. 1) ([2]; FIG. 1) | Compound | incorporation of UV filter into the water phase in sufficiently high concentrations [1]
1 | 659 | (pH 7) | <1.0 | about 1 % m/V | <1.2% | <1.0% | <1.0% |  |  | CC1=C(Nc2ccccc2Br)CC/C1=N\c1ccccc1Br.Cc1ccc(S(=O)(=O)O)cc1 [Compound D, (E)-2-bromo-N-(3-((2-bromophenyl)amino)-2-methylcyclopent-2-en-1-ylidene)benzenaminium 4-methylbenzenesulfonate] | not been possible to solve
2 |  | (pH 6) | >50.0 |  | insoluble | insoluble | insoluble | 943 |  | CC1=C(NCCOCCO)CCC/C1=N\CCOCCO.Cl [Compound A, (E)-2-(2-hydroxyethoxy)-N-(3-((2-(2-hydroxyethoxy)ethyl)amino)-2-methylcyclohex-2-en-1-ylidene)ethan-1-aminium chloride] | could be incorporated into the water phase in sufficiently high concentrations
3 | 737 | (pH 7) | <1.0 | about 1 % m/V | <1.2% | <1.0% | <1.0% |  |  | COc1ccc(/N=C2\CCC(Nc3ccc(OC)cc3)=C2C)cc1.Cc1ccc(S(=O)(=O)O)cc1 [Compound C, (E)-4-methoxy-N-(3-((4-methoxyphenyl)amino)-2-methylcyclopent-2-en-1-ylidene)benzenaminium 4-methylbenzenesulfonate] | 
4 |  | (pH 6) | >50.0 |  | insoluble | insoluble | insoluble | 1725 | highest specific extinction coefficient | CC1=C(NCCO)CCC/C1=N\CCO.Cl [Compound B, (E)-2-hydroxy-N-(3-((2-hydroxyethyl)amino)-2-methylcyclohex-2-en-1-ylidene)ethan-1-aminium chloride] | could be incorporated into the water phase in sufficiently high concentrations
